Holding throughout (assay type): binding
For one assay, the target named is T1, Bcl-xL (Homo sapiens, UniProt Q07817, DEL26-81).
T1 construct: pET28a His-SUMO Bcl-xL (1-198, missing 26-81); made in house; host or cells: E. coli Rosetta 2
Nature of the assay: Surface plasmon resonance (SPR), peptides flowed over immobilised His-SUMO Bcl-xL. As to conditions: SPR Biacore 3000, His-SUMO Bcl-xL on Ni-NTA chip, PBS with 0.01 mg/mL BSA, 0.1% Tween 20, 1:1 model, average of at least 3 data sets; for Kd: read-out: Bcl-xL K d; for koff: read-out: Bcl-xL k off; for kon: read-out: Bcl-xL k on. How it is done:
To investigate how the hydrocarbon constraint affects binding kinetics, we established a surface plasmon resonance (SPR) based assay. […] BID-WT and BID-MM were then flowed over the immobilised protein. […] These experiments were repeated for the BIM series of peptides.
SPR of BIM series of peptides
The binding kinetics and affinities were analysed by SPR (Biacore 3000). […]
immobilised on an Ni-NTA chip non-covalently in PBS with 0.01mg/ML BSA and 0.1% Tween 20 […]
(Running buffer). […] For the […]
the peptides were diluted into running buffer. Experiments were run at 40ul/min in running buffer.
20 minute dissociation period. The binding kinetic parameters were evaluated with BIA-Evaluation software (BIAcore 3000) in which all data sets were fit to a simple 1:1 (Langmuir) binding model. […]
(1 picture or pasted object on this page, not shown here)
On the technique in general: Surface plasmon resonance follows binding to a sensor surface in real time, without labels.

Another assay addresses T2, Mcl-1/FITC-NOXA-B (Homo sapiens, UniProt Q07820).
T2 construct: His-SUMO (N, cleaved yes); made in house; host or cells: E. coli Rosetta 2
Nature of the assay: Fluorescence anisotropy competition assay, inhibition of Mcl-1/FITC-NOXA-B interaction. On the procedure:
(§1) To profile the binding behaviour of the constrained peptides we tested them in both competition displacement assays and direct binding assays. […] Of particular interest was the potential for the introduction of a constraint to have differential effects on protein specificity/selectivity. […] We next tested the constrained peptides in inhibition assays (Fig. 3a and b and Table 2). […]
(§2) constructs were over-expressed in the E. coli strain Rosetta 2. Cells were resuspended in 50mM TRIS pH 8.0, 500mM NaCl, 15mM Imidazole and lysed by sonication. The clarified lysate was applied to a 5ml HisTrap column equilibrated with 50mM TRIS pH 8.0, 500mM NaCl, 15mM Imidazole. The HisTrap was then washed with 10 CV of 50mM TRIS pH 8.0, 500mM NaCl, 15mM Imidazole followed by 10 CV 50mM TRIS pH 8.0, 500mM NaCl, 25mM Imidazole. The fusion proteins were eluted in 50mM TRIS pH 8.0, 500mM NaCl, 300mM Imidazole. TheHis-SUMO tag was removed in overnight in dialysis into 50mM TRIS pH 8.0, 250mM NaCl in the presence of Smt3 protease, Ulp1, overnight at 4°C. Uncleaved material and His-SUMO were removed by reapplication of the sample to a HisTrap in 50mM TRIS pH 8.0, 250mM NaCl and the flow through containing Mcl- […]
(§3) The proteins were then filtered before further purification on a Superdex 75 (GE […]
(§4) proteins were concentrated and stored at -80°C.
(§5) The assays were performed as detailed in 10, 11.
(§6) The buffers used for fluorescence anisotropy were either phosphate buffer (40 mM sodium phosphate, 200 mM sodium chloride, 0.02 mg ml-1 bovine serum albumin, pH 7.50) or Tris buffer (50 mM Tris, 140 mM sodium chloride, pH 7.50). Phosphate buffer was used for all competition assays […]
(§7) Assays were run in 96 or 384 well Optiplates and were scanned using a Perkin Elmer EnVisionTM 2103 MultiLabel plate reader. Fluorescein labelled peptides used an excitation and emission wavelength of 480 (30) nm and 535 (40) nm respectively (dichroic mirror 505 nm) whilst BODIPY labelled peptides used an excitation and emission wavelength of 531 (25) nm and 595 (60) nm respectively (dichroic mirror 555 nm), […]
(§8) Plates were read after 1 h […]
(§9) respectively. Plates were read after 1 h. […]
(§10) Processing of fluorescence anisotropy data
(§11) Fluorescence anisotropy data was processed using Microsoft Excel to calculate intensity, anisotropy […]
(§12) b (λ(rmax − r) + r − rmin) r = anisotropy, I = total intensity, P = perpendicular intensity, S = parallel intensity, Lb = fraction ligand bound, λ = Ibound/Iunbound , G = 1= instrumental factor. […]
(§13) the calculation of IC50 and EC50) or to the Kd model for the extraction of Kd values:
(§14) Where for the logisitic model; y = r = anisotropy, xo = mid-point of the curve between the rmax and rmin […]
(§15) For the Kd model; y = Lb*[FL], K = Kd, [FL] = Concentration of fluorescent ligand.
Background: In fluorescence polarisation assays a small probe gives low polarisation when free and higher when bound to something large.

The target of the next assay is T3, Bcl-xL/BODIPY-BAK (Homo sapiens, UniProt Q07817, DEL26-81).
T3 construct: pET28a His-SUMO Bcl-xL (1-198, missing 26-81); His-SUMO (N, cleaved yes); made in house; host or cells: E. coli Rosetta 2
T3 sequence (Q07817 with tags, fused parts or gaps DEL26-81): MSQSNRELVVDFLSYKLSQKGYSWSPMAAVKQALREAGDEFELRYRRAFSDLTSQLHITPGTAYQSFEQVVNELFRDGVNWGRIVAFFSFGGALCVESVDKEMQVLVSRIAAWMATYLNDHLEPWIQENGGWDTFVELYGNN
Nature of the assay: Fluorescence anisotropy competition assay, inhibition of Bcl-xL/BODIPY-BAK interaction. On the procedure:
as §1, §2, §3, §4, §5, §6, §7, §8, §9, §10, §11, §12, §13, §14, §15

This is an account of results in article PMC5618334, “Hydrocarbon constrained peptides – understanding preorganisation and binding affinity” (Chemical Science, 2016).

Where a SMILES comes first, the peptide text is derived from it. [ ]: non-standard residue; d: D form. Nle = CCCC[C@H](N)C(=O)O

By IC50 is commonly meant the concentration that inhibits the measured activity by half. Low readings indicate higher potency, high ones lower potency.

T2 sequence (Q07820 172-327): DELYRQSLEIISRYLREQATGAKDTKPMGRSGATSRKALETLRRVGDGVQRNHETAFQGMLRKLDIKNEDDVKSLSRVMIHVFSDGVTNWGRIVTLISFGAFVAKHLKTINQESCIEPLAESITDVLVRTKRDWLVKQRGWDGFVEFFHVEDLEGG
T1 sequence (Q07817 with tags, fused parts or gaps DEL26-81): as the sequence (Q07817 with tags, fused parts or gaps DEL26-81) above

Take `CCCC[C@H](NC(=O)[C@]1(C)CCCC=CCCC[C@](C)(NC(=O)[C@H](C)NC(=O)[C@H](CC(C)C)NC(=O)[C@H](Cc2c[nH]cn2)NC(=O)[C@H](CCCNC(=N)N)NC(=O)[C@H](C)NC(=O)[C@@H](NC(=O)[C@H](CC(N)=O)NC(=O)[C@H](CCCNC(=N)N)NC(=O)[C@@H](NC(=O)[C@@H](NC(=O)[C@H](CC(=O)O)NC(=O)[C@H](CCC(=O)O)NC(C)=O)[C@@H](C)CC)[C@@H](C)CC)[C@@H](C)CC)C(=O)N[C@@H](C(C)C)C(=O)NCC(=O)N[C@@H](CC(=O)O)C(=O)N1)C(=O)N[C@@H](CC(=O)O)C(=O)N[C@@H](CCCNC(=N)N)C(=O)N[C@@H](CO)C(=O)N[C@H](C(=O)N[C@@H](Cc1c[nH]c2ccccc12)C(N)=O)[C@@H](C)CC` [BID-DM]: on Bcl-xL, the Kd is 178 ± 52 nM, the koff turned out to be 0.003 s⁻¹ and the kon was determined as 17500 M⁻¹ s⁻¹. The IC50 on Mcl-1/FITC-NOXA-B turned out to be 800 ± 70 nM. The half-inhibitory concentration (IC50) on Bcl-xL/BODIPY-BAK was determined as 1140 ± 40 nM.
`CCCC[C@H](NC(=O)[C@@H]1CCC/C=C\CCC[C@H](NC(=O)[C@H](C)NC(=O)[C@H](CC(C)C)NC(=O)[C@H](Cc2c[nH]cn2)NC(=O)[C@H](CCCNC(=N)N)NC(=O)[C@H](C)NC(=O)[C@@H](NC(=O)[C@H](CC(N)=O)NC(=O)[C@H](CCCNC(=N)N)NC(=O)[C@@H](NC(=O)[C@@H](NC(=O)[C@H](CC(=O)O)NC(=O)[C@H](CCC(=O)O)NC(C)=O)[C@@H](C)CC)[C@@H](C)CC)[C@@H](C)CC)C(=O)N[C@@H](C(C)C)C(=O)NCC(=O)N[C@@H](CC(=O)O)C(=O)N1)C(=O)N[C@@H](CC(=O)O)C(=O)N[C@@H](CCCNC(=N)N)C(=O)N[C@@H](CO)C(=O)N[C@H](C(=O)N[C@@H](Cc1c[nH]c2ccccc12)C(N)=O)[C@@H](C)CC` [BID-MM]: at Bcl-xL, the Kd came out at 107 ± 29 nM, the koff stood at 0.003 s⁻¹ and the kon was determined as 31000 M⁻¹ s⁻¹. This compound also returned an IC50 at Mcl-1/FITC-NOXA-B of 1600 ± 120 nM. In addition, the IC50 at Bcl-xL/BODIPY-BAK was 620 ± 20 nM.
For `CCCC[C@H](NC(=O)[C@H](CO)NC(=O)[C@H](CC(=O)O)NC(=O)CNC(=O)[C@@H](NC(=O)[C@H](CCC(N)=O)NC(=O)[C@H](C)NC(=O)[C@H](CC(C)C)NC(=O)[C@H](Cc1c[nH]cn1)NC(=O)[C@H](CCCNC(=N)N)NC(=O)[C@H](C)NC(=O)[C@@H](NC(=O)[C@H](CC(N)=O)NC(=O)[C@H](CCCNC(=N)N)NC(=O)[C@@H](NC(=O)[C@@H](NC(=O)[C@H](CC(=O)O)NC(=O)[C@H](CCC(=O)O)NC(C)=O)[C@@H](C)CC)[C@@H](C)CC)[C@@H](C)CC)C(C)C)C(=O)N[C@@H](CC(=O)O)C(=O)N[C@@H](CCCNC(=N)N)C(=O)N[C@@H](CO)C(=O)N[C@H](C(=O)N[C@@H](Cc1c[nH]c2ccccc12)C(N)=O)[C@@H](C)CC` [BID-WT, reference compound] (Ac-EDIIRNIARHLAQVGDS[Nle]DRSIW-NH2) the same measures were 57 ± 16 nM, 0.01 s⁻¹, 180000 M⁻¹ s⁻¹, 390 ± 80 nM and 1440 ± 50 nM.
